Converted amounts (≈) assume the structure as drawn.
Assays:
[1] = target: Prolyl endopeptidase, Prolyl Oligopeptidase (hPREP) (Homo sapiens (Human), UniProt P48147); assay: hPrep inhibition assay; type: biochemical; settings: hPREP 0.6 nM, Z-Gly-Pro-amino-methylcoumarin 50 μM; read-out: PREP IC50
Outline: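 Fluorogenic read-out (340 nm excitation, 460 nm emission) after 20 min at rt, using 50 μM final Z-Gly-Pro-aminomethylcoumarin and 0.6 nM final enzyme, following 15 min compound preincubation. Buffer pH 7.5 with glutathione and Triton X-100. IC50 via one-site model on % inhibition vs log concentration.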

FAP [2] = target: T1, FAP (Homo sapiens (Human), UniProt Q12884); assay: hFAP inhibition assay; type: biochemical; settings: hFAP […], Ala-Pro-AMC 20 μM; n = 1 or geometric mean n = 2-3
Outline: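 Compounds (10-point, 3-fold dilutions from 50 μM top) were preincubated 15 min at rt in the dark with 0.48 nM hFAP in pH 7.4 Tris/NaCl/Chaps buffer. Reaction was started with substrate (40 μM solution) and ran 30 min at rt. Read by fluorescence (340/460 nm); IC50 from one-site fit.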
Target sequence in this assay (Q12884 38-760): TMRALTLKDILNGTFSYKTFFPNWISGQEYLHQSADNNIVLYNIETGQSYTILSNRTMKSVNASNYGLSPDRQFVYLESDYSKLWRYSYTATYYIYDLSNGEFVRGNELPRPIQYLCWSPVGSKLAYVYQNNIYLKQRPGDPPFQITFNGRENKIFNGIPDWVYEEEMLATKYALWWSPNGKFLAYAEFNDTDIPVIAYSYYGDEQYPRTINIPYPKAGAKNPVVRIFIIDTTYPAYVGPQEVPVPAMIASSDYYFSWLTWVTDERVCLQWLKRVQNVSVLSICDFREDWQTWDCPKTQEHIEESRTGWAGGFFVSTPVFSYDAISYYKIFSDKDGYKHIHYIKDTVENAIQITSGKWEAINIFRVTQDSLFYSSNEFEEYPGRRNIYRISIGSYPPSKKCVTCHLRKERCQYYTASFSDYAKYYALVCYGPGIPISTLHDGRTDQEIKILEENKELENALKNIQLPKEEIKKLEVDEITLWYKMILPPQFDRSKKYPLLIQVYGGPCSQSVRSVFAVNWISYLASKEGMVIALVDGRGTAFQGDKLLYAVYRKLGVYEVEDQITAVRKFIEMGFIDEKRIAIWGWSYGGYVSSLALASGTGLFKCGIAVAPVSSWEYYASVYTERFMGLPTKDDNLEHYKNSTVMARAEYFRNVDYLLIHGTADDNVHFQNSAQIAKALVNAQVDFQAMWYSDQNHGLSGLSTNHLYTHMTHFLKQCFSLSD

Kinetic solubility = settings: kinetic from dmso stock
Experimental: Kinetic solubility was measured as described in Comput Aided Mol Des 2015, 29, 795.

FAP [3] = target: FAP (Mus musculus (Mouse), UniProt P97321); assay: FAP plasma inhibition assay, mouse plasma; type: biochemical; settings: mouse plasma diluted 1:67, Ala-Pro-AMC 75 μM
Experimental: (§1) This assay was adapted from the method described in Example 237 for detection of FAP target engagement enzyme activity in plasma. Plasma (anticoagulant K2EDTA) was used as the enzyme source: Human plasma (Pooled from AZ Biobank), Mouse plasma (AZ AST Biobank), and Cynomolgus plasma (BioIVT, #NHP00PLK2FNN, lot CYN222895). 384-Well black fluotrack PS plates (Greiner 781076) were used. 20 μL diluted plasma (Cynomolgus and Human plasma dilution 1:40, Mouse plasma dilution 1:67) in buffer (PBS, 0.1% BSA) was added to 0.6 μL compounds (in DMSO). Compounds were tested using 10 CR, 3 fold dilution series from 500 nM FAC. Two replicates for each assay point were run on the same plate. A fluorescence blank read was taken before substrate addition. […] Plates were incubated for 40 min at rt in the dark. […] IC50 values were determined by plotting % inhibition versus log compound concentration.

hFAP (M39-A757) = hFAP (M39-A757) (Homo sapiens (Human), UniProt Q12884); assay: hFAP binding assay (surface plasmon resonance); settings: SPR, 20° C.; for hFAP Binding assay k(off) / hFAP Binding assay k(on): single cycle kinetics; for Kd: n = 1 or geometric mean n = 2-4
[4] = Metabolic stability in human liver microsomes (HLM); settings: human
Experimental: Metabolic stability in HLM was measured as described in J Comput Aided Mol Des 2015, 29, 795.

Caco-2 cell permeability = settings: human
Experimental: Caco-2 cell permeability was measured as described in Mol Pharm 2017, 14, 1601.

[5] = Metabolic stability in human hepatocytes (hHep); type: in vitro ADME; settings: n = 1 or geometric mean of n = 2
FAP [6] = target: T1, FAP; assay: FAP plasma inhibition assay, human plasma; type: biochemical; settings: human plasma diluted 1:40, Ala-Pro-AMC 75 μM
Experimental: as §1
Target sequence in this assay (Q12884 24-760): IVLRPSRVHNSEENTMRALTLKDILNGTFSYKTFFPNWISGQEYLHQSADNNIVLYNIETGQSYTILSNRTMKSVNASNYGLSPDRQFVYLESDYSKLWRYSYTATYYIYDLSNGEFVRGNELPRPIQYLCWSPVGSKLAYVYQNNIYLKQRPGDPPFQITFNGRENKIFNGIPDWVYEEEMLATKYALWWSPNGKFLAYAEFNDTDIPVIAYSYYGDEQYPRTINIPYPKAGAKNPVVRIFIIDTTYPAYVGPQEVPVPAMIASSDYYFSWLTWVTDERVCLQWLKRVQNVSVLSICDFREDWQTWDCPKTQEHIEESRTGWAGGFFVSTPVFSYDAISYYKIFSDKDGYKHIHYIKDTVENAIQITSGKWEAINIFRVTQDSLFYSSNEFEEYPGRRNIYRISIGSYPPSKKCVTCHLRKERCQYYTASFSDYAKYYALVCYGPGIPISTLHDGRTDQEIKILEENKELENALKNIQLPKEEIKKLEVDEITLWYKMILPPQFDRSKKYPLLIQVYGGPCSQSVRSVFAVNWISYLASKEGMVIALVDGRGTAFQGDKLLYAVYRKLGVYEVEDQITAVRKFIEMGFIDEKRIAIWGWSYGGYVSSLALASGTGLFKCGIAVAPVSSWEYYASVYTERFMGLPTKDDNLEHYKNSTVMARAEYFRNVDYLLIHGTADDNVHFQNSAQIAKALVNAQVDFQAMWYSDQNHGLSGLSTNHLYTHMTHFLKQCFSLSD

[7] = Metabolic stability in rat hepatocytes (rHep); settings: n = 1 or geometric mean of n = 2-3
[8] = target: human Fibroblast activation protein alpha (hFAP) (Homo sapiens (Human), UniProt Q12884); assay: hFAP inhibition assay (tight binders); type: biochemical; settings: Ala-Pro-AMC 20 μM, n = 1 or geometric mean n = 2-6; note: hFAP 2.4 pM
Experimental: The plates were read on a PHERAstar® reader with excitation 340 nm and emission 460 nm. Data were analyzed in Genedata Screener®. IC50 values were determined by plotting % inhibition versus log compound concentration and using a one site dose response model.

[9] = Solubility, kinetic solubility, n = 1 or average of n = 2-3
[10] = HLM CLint, n = 1 or average of n = 2-3

Chain of human Fibroblast activation protein alpha (hFAP) (Q12884 38-760): as the sequence (Q12884 38-760) above
Chain of FAP (Mus musculus (Mouse), UniProt P97321) (P97321 24-761): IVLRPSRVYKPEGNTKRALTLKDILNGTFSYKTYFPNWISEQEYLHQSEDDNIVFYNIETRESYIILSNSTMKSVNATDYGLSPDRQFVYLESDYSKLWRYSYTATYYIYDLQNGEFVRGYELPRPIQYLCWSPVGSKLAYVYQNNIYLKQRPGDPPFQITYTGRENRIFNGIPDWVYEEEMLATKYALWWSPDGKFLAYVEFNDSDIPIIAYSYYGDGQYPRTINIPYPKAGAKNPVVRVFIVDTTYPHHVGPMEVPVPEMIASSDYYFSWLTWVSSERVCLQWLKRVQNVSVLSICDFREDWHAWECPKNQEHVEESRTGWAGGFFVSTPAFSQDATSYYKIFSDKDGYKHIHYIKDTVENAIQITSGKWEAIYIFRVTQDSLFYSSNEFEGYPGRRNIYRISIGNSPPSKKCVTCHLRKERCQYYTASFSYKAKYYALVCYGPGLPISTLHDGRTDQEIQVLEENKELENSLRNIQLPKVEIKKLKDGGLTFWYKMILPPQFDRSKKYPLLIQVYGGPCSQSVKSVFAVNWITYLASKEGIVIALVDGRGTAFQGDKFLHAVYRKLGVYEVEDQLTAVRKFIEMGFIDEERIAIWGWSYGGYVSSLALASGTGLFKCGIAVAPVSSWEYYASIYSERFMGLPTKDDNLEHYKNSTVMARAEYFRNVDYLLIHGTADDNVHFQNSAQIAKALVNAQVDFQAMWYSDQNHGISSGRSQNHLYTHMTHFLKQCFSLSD
Chain of Prolyl endopeptidase, Prolyl Oligopeptidase (hPREP) (P48147 whole entry): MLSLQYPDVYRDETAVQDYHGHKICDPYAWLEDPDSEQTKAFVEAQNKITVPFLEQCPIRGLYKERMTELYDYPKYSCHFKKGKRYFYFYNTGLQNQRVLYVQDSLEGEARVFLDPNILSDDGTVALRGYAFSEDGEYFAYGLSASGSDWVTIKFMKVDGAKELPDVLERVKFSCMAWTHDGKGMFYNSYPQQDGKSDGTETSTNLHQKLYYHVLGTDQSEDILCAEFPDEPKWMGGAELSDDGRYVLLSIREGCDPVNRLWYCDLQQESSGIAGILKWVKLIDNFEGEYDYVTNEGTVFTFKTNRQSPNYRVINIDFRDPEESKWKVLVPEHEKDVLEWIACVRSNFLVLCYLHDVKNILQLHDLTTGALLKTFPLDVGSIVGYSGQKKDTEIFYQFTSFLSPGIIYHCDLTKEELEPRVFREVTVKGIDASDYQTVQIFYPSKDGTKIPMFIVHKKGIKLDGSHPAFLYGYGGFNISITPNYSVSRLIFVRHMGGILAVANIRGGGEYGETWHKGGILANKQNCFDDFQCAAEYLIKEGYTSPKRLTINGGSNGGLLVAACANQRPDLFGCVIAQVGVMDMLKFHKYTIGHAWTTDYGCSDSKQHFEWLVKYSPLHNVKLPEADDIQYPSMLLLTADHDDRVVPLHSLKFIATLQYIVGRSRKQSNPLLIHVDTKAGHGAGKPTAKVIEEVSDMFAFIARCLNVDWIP
Chain of hFAP (M39-A757) (Q12884 39-757): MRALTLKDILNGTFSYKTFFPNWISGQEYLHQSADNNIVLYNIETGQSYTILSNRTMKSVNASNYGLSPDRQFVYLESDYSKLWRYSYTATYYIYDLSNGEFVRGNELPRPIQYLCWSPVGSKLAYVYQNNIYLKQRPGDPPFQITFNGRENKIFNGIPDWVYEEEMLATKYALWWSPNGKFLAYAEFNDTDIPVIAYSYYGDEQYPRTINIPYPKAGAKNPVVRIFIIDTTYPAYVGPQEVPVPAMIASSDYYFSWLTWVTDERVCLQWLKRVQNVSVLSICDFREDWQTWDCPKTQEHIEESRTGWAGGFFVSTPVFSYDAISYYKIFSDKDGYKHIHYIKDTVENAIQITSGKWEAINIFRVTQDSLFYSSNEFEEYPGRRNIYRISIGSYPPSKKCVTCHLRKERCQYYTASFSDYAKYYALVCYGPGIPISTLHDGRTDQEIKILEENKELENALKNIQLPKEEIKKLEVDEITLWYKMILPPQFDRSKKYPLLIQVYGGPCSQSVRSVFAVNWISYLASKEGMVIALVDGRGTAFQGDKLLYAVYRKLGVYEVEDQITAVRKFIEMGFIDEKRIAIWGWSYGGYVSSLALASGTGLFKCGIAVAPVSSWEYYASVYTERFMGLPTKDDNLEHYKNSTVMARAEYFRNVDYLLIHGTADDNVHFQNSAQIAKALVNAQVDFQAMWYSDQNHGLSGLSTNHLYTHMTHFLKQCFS

N#C[C@@H]1CSCN1C(=O)CNC(=O)c1ccnc2ccc(N3CC4(COC4)C3)cc12 [Example 166, (R)—N-(2-(4-Cyanothiazolidin-3-yl)-2-oxoethyl)-6-(2-oxa-6-azaspiro[3.3]heptan-6-yl)quinoline-4-carboxamide]
IC50 [1]: 1700 nM | IC50 (FAP [2]): 0.34 nM | solubility (Kinetic solubility): > 910 µM | IC50 (FAP [3]): 0.6 nM | hFAP Binding assay k(off) (hFAP (M39-A757)): 0.000049 s⁻¹ | hFAP Binding assay k(on) (hFAP (M39-A757)): 2200000 M⁻¹ s⁻¹ | Kd (hFAP (M39-A757)): 0.03 nM | microsomal CLint [4]: < 3 µL/min/mg | Papp (Caco-2 cell permeability): 2 ×10⁻⁶ cm/s | Papp A→B (Caco-2 cell permeability): 0.56 ×10⁻⁶ cm/s | Papp B→A (Caco-2 cell permeability): 13 ×10⁻⁶ cm/s | efflux ratio (Caco-2 cell permeability): 24 | hHep CLint [5]: <1 μL/min/1E6 | IC50 (FAP [6]): 0.3 nM | rHep CLint [7]: <1 μL/min/1E6 | IC50 [8]: 0.22 nM

N#C[C@@H]1CSCN1C(=O)CNC(=O)c1ccnc2ccc(N3C4CCC3COC4)cc12 [Example 98, 6-(3-Oxa-8-azabicyclo[3.2.1]octan-8-yl)-N-(2-((R)-4-cyanothiazolidin-3-yl)-2-oxoethyl)quinoline-4-carboxamide]
IC50 [1]: 790 nM | IC50 (FAP [2]): 0.27 nM | solubility (Kinetic solubility; [9]): > 1000 µM | IC50 (FAP [3]): 0.4 nM | hFAP Binding assay k(off) (hFAP (M39-A757)): 0.000015 s⁻¹ | hFAP Binding assay k(on) (hFAP (M39-A757)): 1600000 M⁻¹ s⁻¹ | Kd (hFAP (M39-A757)): 0.0088 nM | microsomal CLint [4, 10]: 26 µL/min/mg | Papp (Caco-2 cell permeability): 8.6 ×10⁻⁶ cm/s | Papp A→B (Caco-2 cell permeability): 0.71 ×10⁻⁶ cm/s | Papp B→A (Caco-2 cell permeability): 18 ×10⁻⁶ cm/s | efflux ratio (Caco-2 cell permeability): 25 | hHep CLint [5]: 1.8 μL/min/1E6 | IC50 (FAP [6]): 0.2 nM | rHep CLint [7]: 13 μL/min/1E6 | IC50 [8]: 0.11 nM

N#C[C@@H]1CSCN1C(=O)CNC(=O)c1ccnc2ccc(N3CC(C(F)F)C3)cc12 [Example 28, (R)—N-(2-(4-Cyanothiazolidin-3-yl)-2-oxoethyl)-6-(3-(difluoromethyl)-azetidin-1-yl)quinoline-4-carboxamide]
IC50 [1]: 580 nM | IC50 (FAP [2]): 0.26 nM | solubility (Kinetic solubility; [9]): 73 µM (≈ 31.5 µg/mL) | IC50 (FAP [3]): 0.5 nM | hFAP Binding assay k(off) (hFAP (M39-A757)): 0.00011 s⁻¹ | hFAP Binding assay k(on) (hFAP (M39-A757)): 1100000 M⁻¹ s⁻¹ | Kd (hFAP (M39-A757)): 0.11 nM | microsomal CLint [4, 10]: < 3 µL/min/mg | Papp (Caco-2 cell permeability): 21 ×10⁻⁶ cm/s | Papp A→B (Caco-2 cell permeability): 1.6 ×10⁻⁶ cm/s | Papp B→A (Caco-2 cell permeability): 20 ×10⁻⁶ cm/s | efflux ratio (Caco-2 cell permeability): 12 | hHep CLint [5]: 2.6 μL/min/1E6 | IC50 (FAP [6]): 0.2 nM | rHep CLint [7]: 13 μL/min/1E6 | IC50 [8]: 0.1 nM

N#C[C@@H]1CSCN1C(=O)CNC(=O)c1ccnc2ccc(N3CC(F)(CF)C3)cc12 [Example 157, (R)—N-(2-(4-Cyanothiazolidin-3-yl)-2-oxoethyl)-6-(3-fluoro-3-(fluoromethyl)azetidin-1-yl)quinoline-4-carboxamide]
IC50 [1]: 1200 nM | solubility (Kinetic solubility; [9]): 62 µM (≈ 26.8 µg/mL) | IC50 (FAP [3]): 0.6 nM | hFAP Binding assay k(off) (hFAP (M39-A757)): 0.00012 s⁻¹ | hFAP Binding assay k(on) (hFAP (M39-A757)): 1900000 M⁻¹ s⁻¹ | Kd (hFAP (M39-A757)): 0.065 nM | microsomal CLint [4, 10]: 7.3 µL/min/mg | Papp A→B (Caco-2 cell permeability): 2 ×10⁻⁶ cm/s | Papp B→A (Caco-2 cell permeability): 29 ×10⁻⁶ cm/s | efflux ratio (Caco-2 cell permeability): 15 | hHep CLint [5]: <1 μL/min/1E6 | IC50 (FAP [6]): 0.3 nM | rHep CLint [7]: <1 μL/min/1E6 | IC50 [8]: 0.37 nM

CC1(C)CN(c2ccc3nccc(C(=O)NCC(=O)N4CSC[C@H]4C#N)c3c2)CCO1 [Example 88, (R)—N-(2-(4-Cyanothiazolidin-3-yl)-2-oxoethyl)-6-(2,2-dimethyl-morpholino)quinoline-4-carboxamide]
IC50 [1]: 1200 nM | IC50 (FAP [2]): 0.31 nM | solubility (Kinetic solubility; [9]): > 980 µM | IC50 (FAP [3]): 0.3 nM | hFAP Binding assay k(off) (hFAP (M39-A757)): 0.00034 s⁻¹ | hFAP Binding assay k(on) (hFAP (M39-A757)): 4200000 M⁻¹ s⁻¹ | Kd (hFAP (M39-A757)): 0.082 nM | microsomal CLint [4, 10]: 22 µL/min/mg | Papp (Caco-2 cell permeability): 13 ×10⁻⁶ cm/s | Papp A→B (Caco-2 cell permeability): 1.3 ×10⁻⁶ cm/s | Papp B→A (Caco-2 cell permeability): 29 ×10⁻⁶ cm/s | efflux ratio (Caco-2 cell permeability): 23 | hHep CLint [5]: <1 μL/min/1E6 | IC50 (FAP [6]): 0.2 nM | rHep CLint [7]: 8.6 μL/min/1E6 | IC50 [8]: 0.074 nM

N#C[C@@H]1CSCN1C(=O)CNC(=O)c1c(F)cnc2ccc(N3CCOCC3)cc12 [Example 2, (R)—N-(2-(4-Cyanothiazolidin-3-yl)-2-oxoethyl)-3-fluoro-6-morpholino-quinoline-4-carboxamide]
IC50 [1]: 1700 nM | solubility (Kinetic solubility; [9]): 83 µM (≈ 35.6 µg/mL) | IC50 (FAP [3]): 7.3 nM | hFAP Binding assay k(off) (hFAP (M39-A757)): 0.0038 s⁻¹ | hFAP Binding assay k(on) (hFAP (M39-A757)): 410000 M⁻¹ s⁻¹ | Kd (hFAP (M39-A757)): 9.5 nM | microsomal CLint [4, 10]: 22 µL/min/mg | Papp (Caco-2 cell permeability): 23 ×10⁻⁶ cm/s | Papp A→B (Caco-2 cell permeability): 0.98 ×10⁻⁶ cm/s | Papp B→A (Caco-2 cell permeability): 31 ×10⁻⁶ cm/s | efflux ratio (Caco-2 cell permeability): 32 | hHep CLint [5]: <1 μL/min/1E6 | IC50 (FAP [6]): 8.1 nM | rHep CLint [7]: 3 μL/min/1E6 | IC50 [8]: 0.52 nM

CC(=O)N1CC2(C1)CN(c1ccc3nccc(C(=O)NCC(=O)N4CSC[C@H]4C#N)c3c1)C2 [Example 184, (R)-6-(6-Acetyl-2,6-diazaspiro[3.3]heptan-2-yl)-N-(2-(4-cyanothiazolidin-3-yl)-2-oxoethyl)quinoline-4-carboxamide]
IC50 [1]: 1100 nM | IC50 (FAP [2]): 0.4 nM | solubility (Kinetic solubility; [9]): 930 µM (≈ 432 µg/mL) | IC50 (FAP [3]): 0.6 nM | hFAP Binding assay k(off) (hFAP (M39-A757)): 0.000014 s⁻¹ | hFAP Binding assay k(on) (hFAP (M39-A757)): 950000 M⁻¹ s⁻¹ | Kd (hFAP (M39-A757)): 0.015 nM | microsomal CLint [4, 10]: < 3 µL/min/mg | Papp (Caco-2 cell permeability): 0.1 ×10⁻⁶ cm/s | Papp A→B (Caco-2 cell permeability): 0.25 ×10⁻⁶ cm/s | Papp B→A (Caco-2 cell permeability): 0.78 ×10⁻⁶ cm/s | efflux ratio (Caco-2 cell permeability): 3.1 | hHep CLint [5]: <1 μL/min/1E6 | IC50 (FAP [6]): 0.2 nM | rHep CLint [7]: <1 μL/min/1E6 | IC50 [8]: 0.22 nM

N#C[C@@H]1CSCN1C(=O)CNC(=O)c1ccnc2ccc(N3CCO[C@H](C(F)(F)F)C3)cc12 [Example 74, N-(2-((R)-4-Cyanothiazolidin-3-yl)-2-oxoethyl)-6-((S)-2-(trifluoromethyl)-morpholino)quinoline-4-carboxamide]
IC50 [1]: 2300 nM | solubility (Kinetic solubility; [9]): 180 µM (≈ 86.3 µg/mL) | IC50 (FAP [3]): 0.3 nM | hFAP Binding assay k(off) (hFAP (M39-A757)): 0.00016 s⁻¹ | hFAP Binding assay k(on) (hFAP (M39-A757)): 1100000 M⁻¹ s⁻¹ | Kd (hFAP (M39-A757)): 0.14 nM | microsomal CLint [4, 10]: 28 µL/min/mg | Papp A→B (Caco-2 cell permeability): 1.8 ×10⁻⁶ cm/s | Papp B→A (Caco-2 cell permeability): 53 ×10⁻⁶ cm/s | efflux ratio (Caco-2 cell permeability): 29 | hHep CLint [5]: <1 μL/min/1E6 | IC50 (FAP [6]): 0.2 nM | rHep CLint [7]: 13 μL/min/1E6 | IC50 [8]: 0.094 nM

— patent publication US20230312550A1, “N-(2-(4-CYANOTHIAZOLIDIN-3-YL)-2-OXOETHYL)-QUINOLINE-4-CARBOXAMIDES” (AstraZeneca AB, priority 2020, published 2023)
